Experimental data reported in PMC4580987, “Catalytic site inhibition of insulin-degrading enzyme by a small molecule induces glucose intolerance in mice” (Nature Communications, 2015).
pIC50: −log10 of the molar value. Entries after “also recorded” stand apart in the source; their conditions may differ.

Columns and labels:
C57BL/6J mice [1] = test: Insulin tolerance test (ITT); assay type: in vivo, mouse; details: 50 mg kg^−1 ip
Protocol: AUC for ITT were calculated to evaluate insulin sensitivity. Blood glucose levels were determined using an Accu-Check glucometer (Roche Diagnostics). […] The protocol was approved by the ethical comitee CEEA Nord Pas de Calais (CEEA75).

hIDE = molecular target: T1, hIDE (Homo sapiens, UniProt P14735); test: In vitro hIDE inhibition of insulin hydrolysis; assay type: biochemical; details: substrate native insulin; means of two experiments minimum, s.d.±10%; read-out: Selectivity IC50 hIDE
T1 construct: made in house
T1 sequence (P14735 1-1019): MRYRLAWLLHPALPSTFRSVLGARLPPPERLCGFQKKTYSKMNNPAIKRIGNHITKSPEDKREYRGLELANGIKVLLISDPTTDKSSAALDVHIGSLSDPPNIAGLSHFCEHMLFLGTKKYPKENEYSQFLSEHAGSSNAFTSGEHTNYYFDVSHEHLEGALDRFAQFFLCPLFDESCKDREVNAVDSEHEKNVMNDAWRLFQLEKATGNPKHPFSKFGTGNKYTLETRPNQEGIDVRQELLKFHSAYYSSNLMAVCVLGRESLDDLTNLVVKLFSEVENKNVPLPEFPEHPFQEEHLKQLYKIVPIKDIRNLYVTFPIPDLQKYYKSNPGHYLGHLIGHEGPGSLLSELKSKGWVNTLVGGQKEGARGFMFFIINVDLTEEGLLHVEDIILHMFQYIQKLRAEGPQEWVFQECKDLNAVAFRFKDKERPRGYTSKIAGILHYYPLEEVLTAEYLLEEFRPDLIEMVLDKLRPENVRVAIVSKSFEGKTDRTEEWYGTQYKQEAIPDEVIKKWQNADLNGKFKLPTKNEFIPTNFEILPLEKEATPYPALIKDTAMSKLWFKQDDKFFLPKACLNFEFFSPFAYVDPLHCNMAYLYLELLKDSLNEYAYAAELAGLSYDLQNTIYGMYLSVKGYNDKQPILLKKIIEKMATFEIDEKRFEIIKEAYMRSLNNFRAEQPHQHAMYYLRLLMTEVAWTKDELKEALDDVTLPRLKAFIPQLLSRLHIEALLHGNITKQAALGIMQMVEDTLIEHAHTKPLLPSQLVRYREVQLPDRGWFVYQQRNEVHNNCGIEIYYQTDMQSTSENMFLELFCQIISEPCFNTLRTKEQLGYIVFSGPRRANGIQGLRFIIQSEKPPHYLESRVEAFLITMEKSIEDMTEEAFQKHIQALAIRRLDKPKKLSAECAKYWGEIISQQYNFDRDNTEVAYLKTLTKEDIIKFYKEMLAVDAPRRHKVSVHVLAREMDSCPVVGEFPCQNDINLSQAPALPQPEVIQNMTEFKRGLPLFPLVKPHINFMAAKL
Protocol: The enzymatic activity of hIDE was assayed quantifying the amount of insulin (Actrapid) at the end of the reaction. The quantity of insulin was determined using a Luminex kit (HMHMAG-34K, Millipore). 20 μl of WT IDE in Hepes buffer (50 mM with 100 mM NaCl, pH 7.4) at 1 μg ml^−1 were pre-incubated 10 min at ambient temperature with 20 μl of test compound or vehicle in 96-well microtiter plates (dark, non-binding surface). The reaction was then started by the addition of 40 μl of insulin at 40 nM. The final concentration of hIDE and substrate was 0.25 μg ml^−1 and 20 nM, respectively. Incubations were performed at ambient temperature for 10 min. The reaction was then stopped by addition of 80 μl of 200 mM EDTA. The samples were diluted by a factor of 3, and 15 μl were transferred to 96-well microtiter plates (dark, clear bottom, non-binding surface) containing 15 μl of assay buffer (from Luminex Kit). Fifteen microlitre of insulin magnetic beads were added. Incubation was performed during 16–18 h at 4 °C under agitation. Wells were washed three times and 30 μl of hormone panel antibodies were added. The samples were incubated 30 min at ambient temperature under agitation. 30 μl of strepdavidin-phycoerythrin were added. Incubation was performed 30 min at ambient temperature under agitation. Wells were washed three times and 80 μl of drive fluid were added. The plate was then read with the MagPix apparatus. Data analysis was performed using Xlfit v 5.0 and GraphPad Prism v 4.0. Nonlinear curve fitting and statistical analysis was done using equation 1: […]
where A is minimum value of y; B is range of y; C is the IC50 value and D is slope factor.

C57BL/6J mice [2] = test: Oral glucose tolerance test (OGTT) in C57BL/6J mice; assay type: in vivo, mouse
Protocol: OGTT and IPGTT were performed on 11 to 16 week-old male or female mice (n=4–7 per experimental group). C57BL/6J mice were purchased from Charles River Laboratories (France), Stock no. 000664. C57BL/6J Ide−/− mice were obtained from Guenette[20] and bred in the animal facility of INSERM U1151. WT C57BL/6J mice of the same genetic background were bred in the same animal facility in parallel. NOD Ide−/− mice were generated by backcrossing C57BL/6J Ide−/− mice with NOD wt mice bred in the animal facility of INSERM U1151 and maintained in this facility together with WT NOD mice. Normoglycemic WT and Ide−/− female NOD mice aged 14 weeks were used for OGTTs. Following a 6 h fasting period, a small tail cut was made, basal blood glucose was determined. […] Fifteen minutes later, blood glucose concentrations were measured before and after (up to 120 min, as shown) oral (2 g kg^−1 or 3 g kg^−1, as shown) or intraperitoneal (1.5 g kg^−1) glucose administration. In one series of OGTTs using 3 g kg^−1 glucose and shown in Fig. 5, groups of WT and Ide−/− were inverted between experiments, such that mice initially treated with vehicle were treated 2 days later with 1 and vice versa. Blood glucose levels were determined using an Accu-Check glucometer (Roche Diagnostics). Areas under the curves (AUC) for OGTT and IPGTT were calculated to evaluate glucose tolerance. Plasma insulin concentrations were measured by ELISA (cat. no. 10-1247-01,Mercodia) in blood samples collected 15 min before and 15 and 90 min relative to oral glucose injection. The protocol was approved by the ethical comitee CEEA Paris Descartes (CEEA34).

SMILES: O=C(C[C@@H](Cc1ccc2ccccc2c1)n1cc(CNC(=O)c2ccc(F)cc2)nn1)NO [Compound 1]
- serum insulin concentrations during ITT (C57BL/6J mice [1]; 0.75 U kg^−1 insulin, significant at 30 min): slightly increased
- glucose lowering effect of insulin during ITT (C57BL/6J mice [1]; 30 and 60 min): Augments insulin action in vivo; also recorded: tended to enhance
- pIC50 (hIDE): 7.22
- glucose tolerance in OGTT, WT C57BL/6J (C57BL/6J mice [2]; 50 mg kg^−1 ip, 3 g kg^−1 oral glucose 15 min later): Impairs glucose tolerance in OGTT; also recorded: acute glucose intolerance
- glucose tolerance in OGTT, Ide−/− C57BL/6J (C57BL/6J mice [2]; 50 mg kg^−1 ip, Ide−/− mice): did not develop glucose intolerance
- plasma insulin concentrations in OGTT, Ide−/− C57BL/6J (C57BL/6J mice [2]; 50 mg kg^−1 ip, Ide−/− mice): no effect
- plasma glucose after oral glucose administration (OGTT compared with IPGTT) (C57BL/6J mice [2]; 50 mg kg^−1 ip, oral glucose 2 g kg^−1): significantly increased
- plasma insulin levels in OGTT versus vehicle, WT C57BL/6J (C57BL/6J mice [2]; baseline, 15 and 90 min after glucose load): similar
